Conditions: Liquid, Ebulliometric method (Recirculating still)

CCCCCCCCCCCCCCO [1-tetradecanol]
Conditions | vapor or sublimation pressure [kPa]
479.42 K | 8.319
487.56 K | 11.05
494.5 K | 13.89
500.44 K | 16.78
506.63 K | 20.26
513.01 K | 24.53
513.07 K | 24.53
519.11 K | 29.35
519.18 K | 29.35

CC(C)(C)CO [2,2-dimethyl-1-propanol]
Conditions | vapor or sublimation pressure [kPa]
345.9 K | 20.26
350 K | 24.53
353.97 K | 29.35
357.84 K | 34.76
361.57 K | 40.7
365.36 K | 47.56
371.31 K | 60.19
377 K | 74.65
383.15 K | 93.23
384.84 K | 98.94

CCCCCCCO [heptan-1-ol]
Conditions | vapor or sublimation pressure [kPa]
382.3 K | 8.324
388.34 K | 11.05
388.36 K | 11.05
393.65 K | 13.89
393.67 K | 13.89
398 K | 16.77
402.68 K | 20.25
407.45 K | 24.53
407.46 K | 24.54
412.21 K | 29.34
412.22 K | 29.35
416.72 K | 34.76
416.78 K | 34.76
421.2 K | 40.69
425.69 K | 47.55
425.77 K | 47.57
432.77 K | 60.19
439.55 K | 74.66
446.78 K | 92.98
446.82 K | 93.13
446.87 K | 93.24
448.6 K | 98.12
448.63 K | 98.2
450.73 K | 104.37
452.84 K | 110.87
452.97 K | 111.28

CCCCCCO [hexan-1-ol]
Conditions | vapor or sublimation pressure [kPa]
366.67 K | 8.323
372.64 K | 11.06
377.56 K | 13.87
381.8 K | 16.77
381.81 K | 16.77
386.17 K | 20.26
390.77 K | 24.54
390.78 K | 24.54
395.23 K | 29.35
399.57 K | 34.77
403.73 K | 40.7
407.98 K | 47.57
414.61 K | 60.2
420.99 K | 74.69
427.85 K | 93.19
427.9 K | 93.26
429.52 K | 98.12
429.54 K | 98.16
431.85 K | 105.46
432.25 K | 106.75
432.32 K | 106.98

CCCCCCCCO [octan-1-ol]
Conditions | vapor or sublimation pressure [kPa]
397.32 K | 8.355
403.71 K | 11.1
409.14 K | 13.95
413.79 K | 16.83
418.61 K | 20.33
418.62 K | 20.33
418.63 K | 20.33
423.7 K | 24.62
428.65 K | 29.45
433.49 K | 34.89
438.12 K | 40.83
438.14 K | 40.83
442.88 K | 47.73
450.34 K | 60.37
457.52 K | 74.88
465.25 K | 93.42
465.29 K | 93.54

Source: the NIST ThermoML archive (doi:10.1016/j.fluid.2010.06.019)
